System: cGAS-STING signaling
Assay: interferon reporter assay with transfected polar cell extracts
Assay type: cell-based
Settings: iterative HPLC purification on 3 columns; single peak at retention time 24.5 minutes; FIG. 3
Description: FIG. 1A-FIG. 1B—FIG. 1A cGAS is an innate immune signaling enzyme that generates cyclic GMP-AMP in response to cytosolic DNA, image adapted from (7); FIG. 1B.
Applicants then transfected these extracts into the assay that was used to measure the effects of MB21D2 expression on interferon signaling (FIG. 1B workflow at top).

Nc1ncnc2c1ncn2[C@@H]1O[C@H](CO)[C@@H](O)[C@H]1OP(=O)([O-])OP(=O)([O-])OP(=O)([O-])[O-].[Na+].[Na+].[Na+].[Na+] [2′-ATP, Adenosine 2′-Triphosphate, Sodium Salt]
anti-STING activity of HPLC-purified fraction: anti-STING activity was localized to a single peak
